Measurements taken from ChEMBL document CHEMBL6121046, “Discovery of Novel Hydrazide-Based HDAC3 Inhibitors as Epigenetic Immunomodulators for Cancer Immunotherapy” (J Med Chem, 2025).
Active and inactive are the calls of the source. The calls are words filed in the database; no cut-off is given here.

Tests used:
Histone deacetylase 1 = Histone deacetylase 1 (Homo sapiens, UniProt Q13547); experiment: Inhibition of human recombinant HDAC1 pre-incubated with compounds for 10 mins measured followed by 60 mins of substrate addition
Histone deacetylase 3 = Histone deacetylase 3 (Homo sapiens, UniProt O15379); experiment: Inhibition of human recombinant HDAC3 pre-incubated with compounds for 10 mins measured followed by 60 mins of substrate addition
[1] = biological target: T1, Protein deacetylase HDAC6 (Homo sapiens, UniProt Q9UBN7); experiment: Inhibition of human recombinant HDAC6 pre-incubated with compounds for 10 mins measured followed by 60 mins of substrate addition
T1 sequence (Q9UBN7 whole entry): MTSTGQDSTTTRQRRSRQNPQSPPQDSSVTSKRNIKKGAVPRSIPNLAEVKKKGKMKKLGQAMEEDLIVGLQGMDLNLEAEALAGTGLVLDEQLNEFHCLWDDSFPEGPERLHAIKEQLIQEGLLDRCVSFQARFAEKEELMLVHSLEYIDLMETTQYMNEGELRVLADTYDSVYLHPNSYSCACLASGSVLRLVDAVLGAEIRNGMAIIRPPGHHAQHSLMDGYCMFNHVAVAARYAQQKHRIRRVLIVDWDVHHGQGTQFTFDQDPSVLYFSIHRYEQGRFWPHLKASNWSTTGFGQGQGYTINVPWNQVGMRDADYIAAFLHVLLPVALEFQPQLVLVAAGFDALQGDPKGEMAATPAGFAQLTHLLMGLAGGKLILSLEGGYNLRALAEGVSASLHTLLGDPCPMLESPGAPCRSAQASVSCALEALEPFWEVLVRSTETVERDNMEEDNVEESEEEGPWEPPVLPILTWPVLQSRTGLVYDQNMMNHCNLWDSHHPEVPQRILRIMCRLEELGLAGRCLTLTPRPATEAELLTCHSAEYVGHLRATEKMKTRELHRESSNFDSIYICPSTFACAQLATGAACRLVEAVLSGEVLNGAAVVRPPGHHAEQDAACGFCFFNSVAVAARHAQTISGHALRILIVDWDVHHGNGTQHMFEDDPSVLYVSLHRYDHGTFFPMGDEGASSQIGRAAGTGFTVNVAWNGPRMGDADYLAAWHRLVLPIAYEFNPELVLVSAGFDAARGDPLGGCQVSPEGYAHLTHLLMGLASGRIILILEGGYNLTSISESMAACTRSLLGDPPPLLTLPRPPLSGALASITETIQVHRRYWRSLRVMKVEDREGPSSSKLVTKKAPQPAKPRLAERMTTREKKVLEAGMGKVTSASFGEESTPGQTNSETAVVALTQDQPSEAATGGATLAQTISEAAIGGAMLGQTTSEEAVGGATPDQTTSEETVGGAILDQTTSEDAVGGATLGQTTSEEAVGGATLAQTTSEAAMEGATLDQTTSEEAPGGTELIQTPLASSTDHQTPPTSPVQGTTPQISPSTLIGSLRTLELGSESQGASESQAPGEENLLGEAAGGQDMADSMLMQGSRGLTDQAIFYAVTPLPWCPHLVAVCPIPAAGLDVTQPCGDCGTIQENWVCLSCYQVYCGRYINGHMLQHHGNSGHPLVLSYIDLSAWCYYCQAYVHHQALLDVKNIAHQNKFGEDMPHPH

Histone deacetylase 7 = biological target: T2, Histone deacetylase 7 (Homo sapiens, UniProt Q8WUI4); experiment: Inhibition of human recombinant HDAC7 pre-incubated with compounds for 10 mins measured followed by 60 mins of substrate addition
T2 sequence (Q8WUI4 whole entry): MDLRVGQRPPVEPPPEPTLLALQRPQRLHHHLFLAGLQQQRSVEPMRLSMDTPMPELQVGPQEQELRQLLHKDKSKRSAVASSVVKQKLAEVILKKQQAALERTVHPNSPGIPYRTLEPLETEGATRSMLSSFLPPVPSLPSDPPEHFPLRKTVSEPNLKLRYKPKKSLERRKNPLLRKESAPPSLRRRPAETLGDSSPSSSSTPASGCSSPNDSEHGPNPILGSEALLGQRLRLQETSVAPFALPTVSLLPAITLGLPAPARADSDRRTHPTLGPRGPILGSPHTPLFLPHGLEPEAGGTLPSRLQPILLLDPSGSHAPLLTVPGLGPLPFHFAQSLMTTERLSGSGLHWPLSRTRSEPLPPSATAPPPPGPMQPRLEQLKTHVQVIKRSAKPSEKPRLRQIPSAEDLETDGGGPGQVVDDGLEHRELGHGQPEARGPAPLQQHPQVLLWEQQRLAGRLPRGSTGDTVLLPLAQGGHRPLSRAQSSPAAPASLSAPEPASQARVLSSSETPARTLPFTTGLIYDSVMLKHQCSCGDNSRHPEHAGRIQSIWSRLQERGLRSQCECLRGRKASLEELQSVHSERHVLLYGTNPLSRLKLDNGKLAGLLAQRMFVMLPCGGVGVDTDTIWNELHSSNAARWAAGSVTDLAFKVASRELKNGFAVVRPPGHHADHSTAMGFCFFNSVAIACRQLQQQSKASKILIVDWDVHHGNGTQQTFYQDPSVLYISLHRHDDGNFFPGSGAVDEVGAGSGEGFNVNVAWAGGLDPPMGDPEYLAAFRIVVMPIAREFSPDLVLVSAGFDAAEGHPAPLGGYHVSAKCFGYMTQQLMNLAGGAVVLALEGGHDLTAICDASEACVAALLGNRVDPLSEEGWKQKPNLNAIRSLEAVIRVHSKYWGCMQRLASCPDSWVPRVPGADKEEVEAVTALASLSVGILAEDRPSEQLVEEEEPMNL

Histone deacetylase 8 = biological target: T3, Histone deacetylase 8 (Homo sapiens, UniProt Q9BY41); experiment: Inhibition of human recombinant HDAC8 pre-incubated with compounds for 10 mins measured followed by 60 mins of substrate addition
T3 sequence (Q9BY41 whole entry): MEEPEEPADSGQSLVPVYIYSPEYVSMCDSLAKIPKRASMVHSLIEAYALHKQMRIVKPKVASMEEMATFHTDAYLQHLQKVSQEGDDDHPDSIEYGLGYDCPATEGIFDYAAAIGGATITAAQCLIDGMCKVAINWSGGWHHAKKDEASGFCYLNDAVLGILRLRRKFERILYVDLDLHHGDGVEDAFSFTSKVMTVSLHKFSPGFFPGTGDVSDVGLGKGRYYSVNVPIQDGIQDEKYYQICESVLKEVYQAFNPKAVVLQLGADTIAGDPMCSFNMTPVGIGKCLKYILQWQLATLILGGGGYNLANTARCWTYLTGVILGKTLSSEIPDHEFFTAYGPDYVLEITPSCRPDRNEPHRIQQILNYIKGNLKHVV

B16-F10 = experiment: Antiproliferative activity against mouse B16-F10 cells at 1 uM measured after 48 hrs incubation by MTT assay relative to control
HeLa = experiment: Antiproliferative activity against human HeLa cells measured after 48 hrs incubation by MTT assay relative to control; format: functional, cell-based
HepG2 = experiment: Antiproliferative activity against human HepG2 cells measured after 48 hrs incubation by MTT assay relative to control; format: functional, cell-based; conditions: HepG2, 48 h
MCF7 = experiment: Antiproliferative activity against human MCF7 cells measured after 48 hrs incubation by MTT assay relative to control; format: functional, cell-based; conditions: MCF7, 48 h
MC-38 [2] = experiment: Antiproliferative activity against mouse MC38 cells measured after 48 hrs incubation by MTT assay relative to control; format: functional, cell-based; conditions: MC-38, 48 h
[3] = Antiproliferative activity against […] cells measured after 48 hrs incubation by MTT assay relative to control; format: functional, cell-based; conditions: Mus musculus, Lung cancer cell line
HCT-116 = experiment: Antiproliferative activity against human HCT-116 cells measured after 48 hrs incubation by MTT assay relative to control; format: functional, cell-based; conditions: HCT-116, 48 h
B16-F10 (Mus musculus) = experiment: Antiproliferative activity against mouse B16-F10 cells measured after 48 hrs incubation by MTT assay relative to control; conditions: B16-F10, 48 h
MC-38 [4] = experiment: Increase in acetylated H3 in mouse MC38 cells at 0.1 to 2 uM measured after 24 hrs incubation by Western blot analysis; format: functional, cell-based; conditions: dose 0.1-2 µM
MC-38 [5] = experiment: Effect on acetylated alpha-tubulin in mouse MC38 cells at 0.1 to 2 uM measured after 24 hrs incubation by Western blot analysis; format: functional, cell-based; conditions: dose 0.1-2 µM
MC-38 [6] = experiment: Effect on acetylated SMC3 in mouse MC38 cells at 0.1 to 2 uM measured after 24 hrs incubation by Western blot analysis; format: functional, cell-based; conditions: dose 0.1-2 µM

Chain of Histone deacetylase 3 (O15379 whole entry): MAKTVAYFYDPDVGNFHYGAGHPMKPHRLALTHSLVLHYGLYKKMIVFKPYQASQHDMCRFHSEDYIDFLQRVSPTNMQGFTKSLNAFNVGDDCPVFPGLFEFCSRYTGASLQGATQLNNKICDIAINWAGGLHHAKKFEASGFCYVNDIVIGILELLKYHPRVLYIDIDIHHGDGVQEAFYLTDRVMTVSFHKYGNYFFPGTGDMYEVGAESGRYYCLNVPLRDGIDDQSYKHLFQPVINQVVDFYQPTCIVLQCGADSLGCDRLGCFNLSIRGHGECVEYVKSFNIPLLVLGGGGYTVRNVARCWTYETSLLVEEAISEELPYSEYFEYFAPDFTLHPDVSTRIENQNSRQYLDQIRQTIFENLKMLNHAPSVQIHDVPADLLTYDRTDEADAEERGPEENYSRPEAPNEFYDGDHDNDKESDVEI
Chain of Histone deacetylase 1 (Q13547 whole entry): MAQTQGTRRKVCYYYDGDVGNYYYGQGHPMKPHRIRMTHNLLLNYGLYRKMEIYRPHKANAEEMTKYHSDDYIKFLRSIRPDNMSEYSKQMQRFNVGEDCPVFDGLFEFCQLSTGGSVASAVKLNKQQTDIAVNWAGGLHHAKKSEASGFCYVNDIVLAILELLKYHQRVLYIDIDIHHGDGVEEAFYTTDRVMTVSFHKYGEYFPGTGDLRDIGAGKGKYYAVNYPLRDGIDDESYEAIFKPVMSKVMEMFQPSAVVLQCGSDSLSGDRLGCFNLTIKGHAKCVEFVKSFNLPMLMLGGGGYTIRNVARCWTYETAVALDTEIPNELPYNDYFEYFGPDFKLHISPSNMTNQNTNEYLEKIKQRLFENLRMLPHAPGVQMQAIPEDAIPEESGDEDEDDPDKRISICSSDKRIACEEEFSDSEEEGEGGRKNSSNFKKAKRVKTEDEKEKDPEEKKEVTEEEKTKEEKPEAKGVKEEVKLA

SMILES | IC50 (Histone deacetylase 1) [nM] | IC50 (Histone deacetylase 3) [nM] | IC50 [1] [nM] | IC50 (Histone deacetylase 7) [nM] | IC50 (Histone deacetylase 8) [nM] | Activity (B16-F10) [%] | IC50 (HeLa) [nM] | IC50 (HepG2) [nM] | IC50 (MCF7) [nM] | IC50 (MC-38 [2]) [nM] | IC50 [3] [nM] | IC50 (HCT-116) [nM] | IC50 (B16-F10 (Mus musculus)) [nM] | Activity (MC-38 [4]) | Activity (MC-38 [5]) | Activity (MC-38 [6])
Nc1ccccc1NC(=O)c1ccc(CNC(=O)c2cnc(-c3ccccc3)[nH]2)cc1 | 1410 | 120 | > 10000 | > 10000 | > 10000 | 15.84 | – | – | – | – | – | – | – | – | – | –
Nc1ccccc1NC(=O)c1ccc(CNC(=O)c2cnc(-c3ccc4occc4c3)[nH]2)cc1 | 4180 | 91 | > 10000 | > 10000 | > 10000 | 31.86 | – | – | – | – | – | – | – | – | – | –
CCCNNC(=O)c1ccc(CNC(=O)c2cnc(-c3ccccc3)[nH]2)cc1 | 2060 | 66 | 8910 | > 10000 | > 10000 | 49.33 | 1970 | 500 | 2290 | 5300 | 2190 | 160 | 3060 | – | – | –
Nc1ccccc1NC(=O)c1ccc(CNC(=O)OCc2cccnc2)cc1 [ENTINOSTAT] | – | – | – | – | – | 16.1 | > 10000 | 4080 | 8990 | > 10000 | 2870 | – | 9360 | Active | inactive | inactive
CCCNNC(=O)c1ccc(CNC(=O)c2cnc(-c3ccc(OC)cc3)[nH]2)cc1 | 2360 | 88 | > 10000 | > 10000 | > 10000 | 33.01 | – | – | – | – | – | – | – | – | – | –
CCCNNC(=O)c1ccc(CNC(=O)c2cnc(-c3ccc(F)cc3)[nH]2)cc1 | 960 | 130 | 9020 | > 10000 | > 10000 | 37.64 | – | – | – | – | – | – | – | – | – | –
CCCNNC(=O)c1ccc(CNC(=O)c2cnc(-c3ccc4ccccc4c3)[nH]2)cc1 | 1740 | 74 | > 10000 | > 10000 | > 10000 | 52.99 | 1670 | 690 | 2110 | 3470 | 1370 | 220 | 1970 | – | – | –
CCCNNC(=O)c1ccc(CNC(=O)c2cnc(-c3ccnc4ccccc34)[nH]2)cc1 | 3240 | 170 | > 10000 | > 10000 | > 10000 | 13.07 | – | – | – | – | – | – | – | – | – | –
